pIC50: −log10 of the molar value. Structures can show the parent of a compound that is named as a salt.
Columns and labels:
[1] = tested on: IL-1β release upon NLRP3 activation in peripheral blood mononuclear cells (PBMC); experiment: PBMC IC50 Determination Assay; type: cell-based; settings: Homo sapiens; inhibition of IL-1β release; LPS-primed PBMC stimulated with ATP or nigericin
Summary of the method: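 Human PBMC from buffy coats primed 3 h with LPS (1 μg/mL in protocol B), then compound for 30 min, then ATP (5 mM) or nigericin (10 μM; protocol A only) for 1 h. IL-1β released into medium measured by ELISA at 450 nm (protocol A) or HTRF at […] (protocol B).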

THP-1 = THP-1 IC50 assay; type: cell-based; settings: Homo sapiens; THP-1 cells

SMILES | pIC50 (THP-1) | pIC50 [1]
Cc1cc(C(F)(F)F)cc(O)c1-c1ccc(CNCCN2CCOCC2)nn1 [Compound 144] | 5.00 to 5.52 | 5.52 to 6.00
Cc1cc(C(F)(F)F)cc(O)c1-c1ccc(CN[C@H]2CC[C@](C)(O)CC2)nn1 [Compound 152] | 5.52 to 6.00 | 5.52 to 6.00
Cc1cc(C(F)(F)F)cc(O)c1-c1ccc(CN2CC[C@H](F)C2)nn1 [Compound 35, (S)-2-(6-((3-Fluoropyrrolidin-1-yl)methyl)pyridazin-3-yl)-3-methyl-5-(trifluoromethyl)phenol] | 6.00 to 6.30 | 6.00 to 6.30
Cc1cc(C(F)(F)F)cc(O)c1-c1ccc(CN2CC[C@@H](F)C2)nn1 [Compound 34, (R)-2-(6-((3-Fluoropyrrolidin-1-yl)methyl)pyridazin-3-yl)-3-methyl-5-(trifluoromethyl)phenol] | 5.52 to 6.00 | 5.52 to 6.00
Cc1cc(C(F)(F)F)cc(O)c1-c1ccc(CNC2CCS(=O)(=O)CC2)nn1 [Compound 137] | 5.52 to 6.00 | 5.52 to 6.00
Cc1cc(C(F)(F)F)cc(O)c1-c1ccc(CN2CCOCC2)nn1 [Compound 130] | 6.00 to 6.30 | 6.00 to 6.30
Cc1cc(C(F)(F)F)cc(O)c1-c1ccc(CN[C@@H]2CCOC2)nn1 [Compound 32, (R)-3-Methyl-2-(6-(((tetrahydrofuran-3-yl)amino)methyl)pyridazin-3-yl)-5-(trifluoromethyl)phenol] | 6.00 to 6.30 | > 6.30
Oc1cc(Cl)cc(F)c1-c1ccc(CNC2CCOCC2)nn1 [Compound 69, 5-Chloro-3-fluoro-2-(6-(((tetrahydro-2H-pyran-4-yl)amino)methyl)pyridazin-3-yl)phenol hydrochloride] | 5.00 to 5.52 | 5.00 to 5.52
Cc1cc(F)cc(O)c1-c1ccc(CNC2CCOCC2)nn1 [Compound 52, 5-Fluoro-3-methyl-2-(6-(((tetrahydro-2H-pyran-4-yl)amino)methyl)pyridazin-3-yl)phenol] | 5.00 to 5.52 | 5.00 to 5.52
Cc1cc(Cl)cc(O)c1-c1ccc(CN2CCCC2=O)nn1 [Compound 62, 1-[[6-(4-chloro-2-hydroxy-6-methyl-phenyl)pyridazin-3-yl]methyl]pyrrolidin-2-one] | > 6.30 | > 6.30
Cc1cc(C(F)(F)F)cc(O)c1-c1ccc(CN2C(=O)CCC2(C)C)nn1 [Compound 47, 1-((6-(2-Hydroxy-6-methyl-4-(trifluoromethyl)phenyl)pyridazin-3-yl)methyl)-5,5-dimethylpyrrolidin-2-one] | 5.00 to 5.52 | 5.52 to 6.00
Cc1cc(C(F)(F)F)cc(O)c1-c1ccc(CNC2CCSCC2)nn1 [Compound 136] | 6.00 to 6.30 | 6.00 to 6.30
Cc1cc(C(F)(F)F)cc(O)c1-c1ccc(C[n+]2cccc(N)c2)nn1 [Compound 145] | 5.52 to 6.00 | 5.00 to 5.52
Oc1cc(C(F)(F)F)cc(F)c1-c1ccc(CNC2CCOCC2)nn1 [Compound 42, 3-Fluoro-2-(6-(((tetrahydro-2H-pyran-4-yl)amino)methyl)pyridazin-3-yl)-5-(trifluoromethyl)phenol] | 5.00 to 5.52 | 5.00 to 5.52
Cc1cc(C(F)(F)F)cc(O)c1-c1ccc(COC2CCOCC2)nn1 [Compound 17, 3-methyl-2-(6-(((tetrahydro-2H-pyran-4-yl)oxy)methyl)pyridazin-3-yl)-5-(trifluoromethyl)phenol] | 5.52 to 6.00 | 5.00 to 5.52
Cc1cc([N+](=O)[O-])cc(O)c1-c1ccc(CNC2CCOCC2)nn1 [Compound 57, 3-Methyl-5-nitro-2-(6-(((tetrahydro-2H-pyran-4-yl)amino)methyl)pyridazin-3-yl)phenol hydrochloride] | 5.00 to 5.52 | 5.52 to 6.00
Cc1cc(Cl)cc(O)c1-c1ccc(CN[C@H]2CC(=O)N(C)C2)nn1 [Compound 90, (4S)-4-({[6-(4-Chloro-2-hydroxy-6-methylphenyl)pyridazin-3-yl]methyl}amino)-1-methylpyrrolidin-2-one] | 6.00 to 6.30 | > 6.30
Cc1cc(Cl)cc(O)c1-c1ccc(CN2CCOC2=O)nn1 [Compound 67, 3-((6-(4-Chloro-2-hydroxy-6-methylphenyl)pyridazin-3-yl)methyl)oxazolidin-2-one] | > 6.30 | > 6.30
Cc1cc(Cl)cc(O)c1-c1ccc(CN2CCCC2=S)nn1 [Compound 89, 1-{[6-(4-Chloro-2-hydroxy-6-methylphenyl)pyridazin-3-yl]methyl}pyrrolidine-2-thione] | > 6.30 | > 6.30
Cc1cc(C(F)(F)F)cc(O)c1-c1ccc(CN[C@@H]2CCC(=O)N(C)C2)nn1 [Compound 43, (R)-5-(((6-(2-Hydroxy-6-methyl-4-(trifluoromethyl)phenyl)pyridazin-3-yl)methyl)amino)-1-methylpiperidin-2-one] | 6.00 to 6.30 | > 6.30
Cc1cc(C(F)(F)F)cc(O)c1-c1ccc(CNC2CCN(C)CC2)nn1 [Compound 110] | 5.52 to 6.00 | 5.52 to 6.00
Cc1cc(C(F)(F)F)cc(O)c1-c1ccc(CN[C@@H]2CC(=O)N(C)C2)nn1 [Compound 50, (R)-4-(((6-(2-Hydroxy-6-methyl-4-(trifluoromethyl)phenyl)pyridazin-3-yl)methyl)amino)-1-methylpyrrolidin-2-one] | 5.00 to 5.52 | 5.52 to 6.00
Cc1cc(C(F)(F)F)cc(O)c1-c1ccc(C2(N3CCCC3=O)CC2)nn1 [Compound 86, 1-(1-{6-[2-Hydroxy-6-methyl-4-(trifluoromethyl)phenyl]pyridazin-3-yl}cyclopropyl)pyrrolidin-2-one] | 6.00 to 6.30 | 6.00 to 6.30
Cc1cc(C(F)(F)F)cc(O)c1-c1ccc(CNC2(C)CCOC2)nn1 (centres unmarked) [Compound 6, 3-Methyl-2-(6-(((3-methyltetrahydrofuran-3-yl)amino)methyl)pyridazin-3-yl)-5-(trifluoromethyl)phenol hydrochloride] | 6.00 to 6.30 | 6.00 to 6.30

Now from value to molecule, other results behind:

pIC50 (THP-1) | SMILES | pIC50 [1]
6.00 to 6.30 | Cc1cc(C(F)(F)F)cc(O)c1-c1ccc(CNC2COC2)nn1 [Compound 21] | 6.00 to 6.30
5.00 to 5.52 | Cc1cc(C(F)(F)F)cc(O)c1-c1ccc(CNCC2CCOC2)nn1 (centres unmarked) [Compound 105] | 5.52 to 6.00
5.52 to 6.00 | Cc1cc(C(F)(F)F)cc(O)c1-c1ccc(CN(C)C)nn1 [Compound 94] | 5.52 to 6.00
5.52 to 6.00 | Cc1cc(C(F)(F)F)cc(O)c1-c1ccc(CNCC2CCN(C)C2)nn1 (centres unmarked) [Compound 77, 3-Methyl-2-[6-({[(1-methylpyrrolidin-3-yl)methyl]amino}methyl)pyridazin-3-yl]-5-(trifluoromethyl)phenol dihydrochloride] | 5.52 to 6.00
5.52 to 6.00 | Cc1cc(C(F)(F)F)cc(O)c1-c1ccc(CNc2cncnc2)nn1 [Compound 26] | 6.00 to 6.30
6.00 to 6.30 | Cc1cc(C(F)(F)F)cc(O)c1-c1ccc(CNCC(F)F)nn1 [Compound 96] | > 6.30
5.00 to 5.52 | Cc1cc(C(F)(F)F)cc(O)c1-c1ccc(CNCC2CCCO2)nn1 (centres unmarked) [Compound 106] | 5.52 to 6.00
> 6.30 | Cc1cc(C(F)(F)F)cc(O)c1-c1ccc(CNCC(F)(F)F)nn1 [Compound 95] | > 6.30
> 6.30 | Cc1cc(C(F)(F)F)cc(O)c1-c1ccc(CNc2cnoc2)nn1 [Compound 124] | > 6.30
5.00 to 5.52 | Cc1cc(C(F)(F)F)cc(O)c1-c1ccc(CNCC2CCOCC2)nn1 [Compound 109] | 5.00 to 5.52
5.52 to 6.00 | Cc1cc(C(F)(F)F)cc(O)c1-c1ccc(CNc2c(C)noc2C)nn1 [Compound 51, 2-(6-(((3,5-Dimethylisoxazol-4-yl)amino)methyl)pyridazin-3-yl)-3-methyl-5-(trifluoromethyl)phenol] | 6.00 to 6.30
5.52 to 6.00 | Cc1cc(C(F)(F)F)cc(O)c1-c1ccc(CNCc2ccccc2)nn1 [Compound 138] | 6.00 to 6.30
5.52 to 6.00 | Cc1cc(C(F)(F)F)cc(O)c1-c1ccc(CNCc2cccs2)nn1 [Compound 141] | > 6.30
5.00 to 5.52 | Cc1cc(C(F)(F)F)cc(O)c1-c1ccc(CNCc2cnccn2)nn1 [Compound 92, 3-Methyl-2-(6-(((pyrazin-2-ylmethyl)amino)methyl)pyridazin-3-yl)-5-(trifluoromethyl)phenol] | 5.52 to 6.00
5.52 to 6.00 | Cc1cc(C(F)(F)F)cc(O)c1-c1ccc(CNc2ncccn2)nn1 [Compound 74, 3-Methyl-2-(6-((pyrimidin-2-ylamino)methyl)pyridazin-3-yl)-5-(trifluoromethyl)phenol] | 5.52 to 6.00
5.00 to 5.52 | Cc1cc(C(F)(F)F)cc(O)c1-c1ccc(CNCCN(C)C)nn1 [Compound 116] | 5.00 to 5.52
